# Assays:
# [1] = Metabolic stability in monkey whole blood; format: in vitro ADME, cynomolgus monkey; details: monkey, blood
# Procedure: Metabolic stability in blood and liver microsomes: Fosmetpantotenate or its individual diastereomers (5 μM, n = 2, 37°C) were incubated in mouse, rat, cynomolgus monkey, and human whole blood. […] Incubations of fosmetpantotenate or its individual diastereomers (1 μM, n = 2, 37°C) in pooled liver microsomes (0.25 mg protein/mL in 0.1 M phosphate buffer pH 7.4) were initiated with the addition of nicotinamide adenine dinucleotide phosphate (NADPH; 1 mM). Aliquots (100 μL) were obtained at 0, 5, 10, 20, and 40 min and added to 150 μL of 0.1% formic acid in acetonitrile-containing carbamazepine (0.5 μM) as an analytical internal standard, centrifuged, and the supernatants analyzed by LC-MS/MS.
# (§1) Bioanalysis for determinations of analyte stability: Samples were analyzed using a benchtop tandem quadrupole detector (TQD) mass spectrometer (Waters Ltd, Centennial Park, Hertfordshire). […] Suitable retention and peak shape with separation of the 2 diastereomers were obtained. The chromatography column was a Phenomenex-Kinetex XB C18 (2.10 x 50 mm; 2.6 μm), with a 0.7 mL/min flow rate and a 2 μL injection volume. […] The gradient was initiated with 20% B and increased linearly, reaching 40% B at 0.6 min, followed by 50% B at 0.8 min and by 95% B at 0.9 min. Conditions were kept isocratic through 1.2 min, returned to starting conditions (20% B) at 1.25 min, and maintained at 20% B through 1.5 min before the next injection. Since fosmetpantotenate is a mixture of diastereomers which are resolved chromatographically, the fosmetpantotenate MRM area corresponds to the sum of the MRM areas of the individual diastereomers.
# (§2) The percent of compound remaining was determined from the MRM area response in each sample relative to that in the T = 0 samples (normalized for internal standard). Natural log plots of the percent compound remaining over time were used to determine the t½ of compound disappearance using the relationship t½ = -0.693/λ, where λ is the slope of the natural logarithm of the percent compound remaining vs time curve.
# [2] = test system: porcine brain endothelial cell (PBEC) co-culture model
# [3] = Metabolic stability in rat whole blood; format: in vitro ADME; details: rat, blood
# Procedure: (§3) Metabolic stability in blood and liver microsomes: Fosmetpantotenate or its individual diastereomers (5 μM, n = 2, 37°C) were incubated in mouse, rat, cynomolgus monkey, and human whole blood. Samples (50 μL) were taken at 0, 5, 15, 30, and 60 min. Incubations of fosmetpantotenate or its individual diastereomers (1 μM, n = 2, 37°C) in pooled liver microsomes (0.25 mg protein/mL in 0.1 M phosphate buffer pH 7.4) were initiated with the addition of nicotinamide adenine dinucleotide phosphate (NADPH; 1 mM). Aliquots (100 μL) were obtained at 0, 5, 10, 20, and 40 min and added to 150 μL of 0.1% formic acid in acetonitrile-containing carbamazepine (0.5 μM) as an analytical internal standard, centrifuged, and the supernatants analyzed by LC-MS/MS.
# as §1, §2
# [4] = Stability in simulated gastric fluid; format: in vitro ADME; details: simulated gi fluid, pH 1.2
# Procedure: Stability in simulated gastric fluid: A stock solution of fosmetpantotenate or its individual diastereomers was prepared in 0.1% formic acid in methanol. Simulated gastric fluid, pH 1.2, was prepared with 2 g/L sodium chloride, 3.2 g/L of pepsin, and 0.7% (v/v) HCl. Gastric buffer, pH 1.2, was prepared containing 2 g/L sodium chloride and 0.7% (v/v) HCl. An appropriate aliquot of fosmetpantotenate or individual diastereomers to yield an initial concentration of 10 μM was added to both fluids, and samples were mixed at ~25°C on an orbital shaker. Aliquots (50 μL) were taken at 0, 2, and 4 h; added to 150 μL dimethyl sulfoxide (DMSO) containing an analytical internal standard; vortexed; and analyzed immediately by LC-MS/MS.
# as §1, §2
# [5] = Metabolic stability in human whole blood; format: in vitro ADME; details: human, blood
# Procedure: as §3, §1, §2
# [6] = Microdialysis (brain striatal dialysate) in C57Bl6 mice; details: striatal dialysate; oral dose at 700 mg/kg; all samples; 700 mg/kg
# [7] = Metabolic stability in mouse whole blood; format: in vitro ADME; details: mouse, blood
# Procedure: as §3, §1, §2
# [8] = test system: liver and brain CoA; assay: Labeled experiments: incorporation of isotopically labeled fosmetpantotenate into CoA; format: in vivo, mouse; details: for Liver CoA (%) +4 AMU / Liver CoA (%) +6 AMU / Liver CoA (%) Unlabeled: 500 mg/kg PO
# Excerpt: Fosmetpantotenate was labeled with three ^13C and one ^15N in the PA moiety and with one ^18O in the phosphate moiety, as indicated in Fig 10. The premise of this experiment is the following: if PPA incorporated into CoA originates from fosmetpantotenate metabolism, then all isotope labels (including the ^18O) will be retained in the CoA molecule, resulting in an increase in molecular weight of 6 atomic mass units (AMU) with respect to unlabeled CoA ([M+H]^+ = 774.3 vs 768.3, respectively; Fig 10, Path A). However, if fosmetpantotenate is hydrolyzed to PA, and PA is then re-phosphorylated by WT PanK to yield PPA, or if the ^18O is exchanged with water, then the ^18O would be lost in the process, resulting in a CoA molecule with a 4-AMU increase in molecular weight over unlabeled CoA ([M+H]^+ = 772.3 vs 768.3, respectively, […], Path B). CoA derived from endogenous PA/PPA will have the unchanged molecular weight ([M+H]^+ = 768.3).
# Animal phase: C57BL6N mice, 8-week old and 19 to 21 g obtained from Charles River (Como, Italy) were used in these studies. One group of mice (N = 3 per time point) received a single oral dose of 500 mg/kg isotopically labeled fosmetpantotenate dissolved in 20% hydroxypropyl-β-cyclodextrin. Another set of mice (N = 8 per time point) received a direct administration of isotopically labeled fosmetpantotenate at 125 μg (25 mg/mL of aCSF containing 147 mM NaCl, 3.0 mM KCl, 1.2 mM CaCl2, and 1.2 mM MgCl2) via cannula into striatum. Brain, liver, and blood samples were collected at pre-dose, 6 h, 12 h (brain only), and 24 h, and were snap frozen in liquid nitrogen.
# Two additional groups of mice (N = 6 per time point for each group) received 3 daily doses (8 am, 2 pm, and 8 pm to mimic an anticipated human dosing schedule) of isotopically labeled fosmetpantotenate at either 1.25 μg (0.625 mg/mL aCSF) or 12.5 μg (6.25 mg/mL aCSF) via ICV infusion cannula (2 μL), for up to 10 consecutive days. Brain (striatum) samples were collected at pre-dose, and at 12 h following the third dose on days 1, 3, 7, and 10, and were snap frozen in liquid nitrogen.
# Sample processing: Brain (striatum) and liver tissues were homogenized in a Precellys homogenizer (Bertin technologies, Montigny-le-Bretonneux, France) with 3 volumes of water for each volume of tissue (1:4 dilution). Protein was precipitated by adding 500 μL methanol to 100 μL of homogenate (1:6 dilution), mixed well, and centrifuged. Blood cells (1 volume) were treated with 1:8 v:v water:methanol (1:10 dilution), mixed, and centrifuged. The supernatants (200 μL for brain and blood cells and 100 μL for liver) were dried under nitrogen, reconstituted with 100 μL ammonium acetate 10 mM (pH ~5), and injected (10 μL) into the LC for high resolution mass spectrometry (HRMS) analyses.
# CoA determination: An Acquity UPLC (Waters) system was used. Samples were chromatographed on a Luna C18 column (50 x 2.0 mm; 5 μm), with a 0.4 mL/min flow rate and a 10 μL injection volume. The mobile phases were (A), 10 mM ammonium acetate in water, pH 6.8 and (B) acetonitrile:2-propanol (9:1; v:v). The gradient was started with 2% (B) and was increased linearly to reach 20% (B) at 5 min; the gradient was ramped to reach 90% (B) at 5.1 min and kept isocratic at 90% (B) through 7.1 min.
# The detector was a Waters QTOF Synapt mass spectrometer, with an electrospray ion source operating in the positive scanning mode acquiring in full scan mode (accuracy <5 ppm). The following exact masses were determined: 768.1230 for CoA, 772.1301 for CoA +4 AMU, and 774.1344 for CoA +6 AMU.
# The CoA levels obtained by MS/MS analyses were corrected for ^18O isotopic incorporation. CoA levels were not adjusted for the 1% and 2% of ^12C and ^14N, respectively, in the labeled fosmetpantotenate. […]
# [9] = in vitro; details: pH 7.4, In Vitro Measured Papp
smiles,measurement,setting,value
"COC(=O)CCNC(=O)[C@H](O)C(C)(C)COP(=O)(N[C@@H](C)C(=O)OC)Oc1ccccc1 (single isomer, unassigned) [Compound D2]",Mean half-life,[1],17 min
same,Percentage Remaining,[1]; 0 h,100%
same,Percentage Remaining,[1]; 2 h,1%
same,In Vitro Measured Papp,[2],4.0 ± 1.3 10^−6 cm/s
same,Mean half-life,[3],<5 min
same,Percentage Remaining,[3]; 0 h,100%
same,Percentage Remaining,[3]; 0.5 h,0%
same,Percentage Remaining,[3]; 1 h,0%
same,half-life (t½) in simulated gastric fluid,[4],> 600 min
same,Mean half-life,[5],>95 min
same,Percentage Remaining,[5]; 0 h,100%
same,Dialysate Conc,[6],< 3.36 nM
same,Mean half-life,[7],<5 min
same,Percentage Remaining,[7]; 0 h,100%
same,Percentage Remaining,[7]; 5 min,1%
same,Percentage Remaining,[7]; 0.25 h,1%
COC(=O)C(C)NP(=[18O])(OCC(C)(C)C(O)C(=O)[15NH][13CH2][13CH2][13C](=O)OC)Oc1ccccc1 (centres unmarked) [isotopically-labeled fosmetpantotenate],Brain CoA (%) +4 AMU,"[8]; 1.25 μg ICV, dose day 3",0%
same,Brain CoA (%) +6 AMU,"[8]; 1.25 μg ICV, dose day 3",0%
same,Brain CoA (%) Unlabeled,"[8]; 1.25 μg ICV, dose day 3",100%
same,Brain CoA (%) +4 AMU,"[8]; 1.25 μg ICV, dose day 7",5%
same,Brain CoA (%) +6 AMU,"[8]; 1.25 μg ICV, dose day 7",4%
same,Brain CoA (%) Unlabeled,"[8]; 1.25 μg ICV, dose day 7",91%
same,Brain CoA (%) +4 AMU,"[8]; 1.25 μg ICV, dose day 10",8%
same,Brain CoA (%) +6 AMU,"[8]; 1.25 μg ICV, dose day 10",6%
same,Brain CoA (%) Unlabeled,"[8]; 1.25 μg ICV, dose day 10",86%
same,Brain CoA (%) +4 AMU,"[8]; 12.5 μg ICV, dose day 3",8%
same,Brain CoA (%) +6 AMU,"[8]; 12.5 μg ICV, dose day 3",15%
same,Brain CoA (%) Unlabeled,"[8]; 12.5 μg ICV, dose day 3",77%
same,Brain CoA (%) +4 AMU,"[8]; 12.5 μg ICV, dose day 7",14%
same,Brain CoA (%) +6 AMU,"[8]; 12.5 μg ICV, dose day 7",27%
same,Brain CoA (%) Unlabeled,"[8]; 12.5 μg ICV, dose day 7",59%
same,Brain CoA (%) +4 AMU,"[8]; 12.5 μg ICV, dose day 10",16%
same,Brain CoA (%) +6 AMU,"[8]; 12.5 μg ICV, dose day 10",28%
same,Brain CoA (%) Unlabeled,"[8]; 12.5 μg ICV, dose day 10",56%
same,Brain CoA (%) +6 AMU,"[8]; 12.5 μg ICV, dose day 10, listed as isotopically labeled-fosmetpantotenate",~ 30%
same,Brain CoA (%) +4 AMU,"[8]; 125 μg intrastriatally, 6 h",2.8%
same,Brain CoA (%) +6 AMU,"[8]; 125 μg intrastriatally, 6 h",36.2%
same,Brain CoA (%) Unlabeled,"[8]; 125 μg intrastriatally, 6 h",61%
same,Brain CoA (%) +4 AMU,"[8]; 125 μg intrastriatally, 12 h",3.6%
same,Brain CoA (%) +6 AMU,"[8]; 125 μg intrastriatally, 12 h",46.4%
same,Brain CoA (%) Unlabeled,"[8]; 125 μg intrastriatally, 12 h",50%
same,Brain CoA (%) +4 AMU,"[8]; 125 μg intrastriatally, 24 h",4.3%
same,Brain CoA (%) +6 AMU,"[8]; 125 μg intrastriatally, 24 h",50.7%
same,Brain CoA (%) Unlabeled,"[8]; 125 μg intrastriatally, 24 h",45%
same,Brain CoA (%) +6 AMU,"[8]; 125 μg intrastriatally, 24 h, listed as isotopically labeled-fosmetpantotenate",~ 50%
same,Liver CoA (%) +4 AMU,[8]; 6 h,1.4%
same,Liver CoA (%) +6 AMU,[8]; 6 h,40%
same,Liver CoA (%) Unlabeled,[8]; 6 h,58.6%
same,Liver CoA (%) +6 AMU,"[8]; 6 h, listed as isotopically labeled-fosmetpantotenate",~ 40%
same,Liver CoA (%) +4 AMU,[8]; 24 h,8.4%
same,Liver CoA (%) +6 AMU,[8]; 24 h,34%
same,Liver CoA (%) Unlabeled,[8]; 24 h,58%
same,Liver CoA (%) +4 AMU,"[8]; 24 h, listed as isotopically labeled fosmetpantotenate",8%
same,incorporation of fosmetpantotenate-derived PPA in brain CoA,[8]; 500 mg/kg single oral administration,not observed
"OC[C@@H](O)[C@@H](O)[C@H](O)[C@H](O)CO [Mannitol, reference compound]",blood-brain barrier permeability classification,[2],low end of permeability range
same,Papp at 1 h,[9],2.2 ± 0.7 ×10⁻⁶ cm/s
